Measured values taken from patent US12421253B2 (Mirati Therapeutics, Inc., priority 2020, dated 2025).

Columns and labels:
KRas^G12S = molecular target: T1, KRas^G12S (Homo sapiens, UniProt P01116, G12S); assay: KRas binding assay (TR-FRET displacement of Cy5 labelled tracer)
T1 construct: […]; biotin (biotinylated); purchased Accelegan Inc

KRas^G12V = molecular target: T2, KRas^G12V (Homo sapiens, UniProt P01116, G12V); assay: as above
T2 construct: […]; biotin (biotinylated); purchased Accelegan Inc
T2 sequence (P01116 1-169 isoform P01116-2 G12V): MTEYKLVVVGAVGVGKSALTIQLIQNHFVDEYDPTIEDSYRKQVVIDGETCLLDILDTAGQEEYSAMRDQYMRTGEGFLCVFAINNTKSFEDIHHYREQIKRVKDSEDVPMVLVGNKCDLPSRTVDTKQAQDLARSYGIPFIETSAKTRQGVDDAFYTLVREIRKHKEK

KRas^Q61H = KRas^Q61H (Homo sapiens, UniProt P01116, Q61H); assay: biochemical
KRas^Q61H, sequence (P01116 1-169 isoform P01116-2 Q61H): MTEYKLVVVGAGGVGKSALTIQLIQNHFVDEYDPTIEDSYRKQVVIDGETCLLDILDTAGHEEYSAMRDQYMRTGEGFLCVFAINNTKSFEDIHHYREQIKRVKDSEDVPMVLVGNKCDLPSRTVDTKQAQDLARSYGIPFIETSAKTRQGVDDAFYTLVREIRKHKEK

KRas^G12A = molecular target: T3, KRas^G12A (Homo sapiens, UniProt P01116, G12A); assay: KRas binding assay (TR-FRET displacement of Cy5 labelled tracer)
T3 construct: […]; biotin (biotinylated); purchased Accelegan Inc
T3 sequence (P01116 1-169 isoform P01116-2 G12A): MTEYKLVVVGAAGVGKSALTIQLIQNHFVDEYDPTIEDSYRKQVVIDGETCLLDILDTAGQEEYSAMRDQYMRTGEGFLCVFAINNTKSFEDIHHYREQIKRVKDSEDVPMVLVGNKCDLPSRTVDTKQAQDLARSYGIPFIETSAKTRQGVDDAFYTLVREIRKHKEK

KRas^G12C = KRas^G12C (Homo sapiens, UniProt P01116, G12C); assay: biochemical
KRas^G12C, sequence (P01116 1-169 isoform P01116-2 G12C): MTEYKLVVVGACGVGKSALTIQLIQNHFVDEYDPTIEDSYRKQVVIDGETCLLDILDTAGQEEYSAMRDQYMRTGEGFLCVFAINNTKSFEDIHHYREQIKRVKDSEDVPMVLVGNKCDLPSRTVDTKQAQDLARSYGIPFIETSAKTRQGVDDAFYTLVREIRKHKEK

KRas^G13D = KRas^G13D (Homo sapiens, UniProt P01116, G13D); assay: biochemical
KRas^G13D, sequence (P01116 1-169 isoform P01116-2 G13D): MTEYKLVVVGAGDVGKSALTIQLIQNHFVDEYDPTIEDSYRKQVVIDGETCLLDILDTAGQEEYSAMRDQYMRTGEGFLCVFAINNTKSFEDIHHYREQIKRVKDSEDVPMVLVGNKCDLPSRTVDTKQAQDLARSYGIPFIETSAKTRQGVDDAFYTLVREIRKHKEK

KRas^G12D = molecular target: T4, KRas^G12D (Homo sapiens, UniProt P01116, G12D); assay: KRas binding assay (TR-FRET displacement of Cy5 labelled tracer)
T4 construct: […]; biotin (biotinylated); purchased Accelegan Inc
T4 sequence (P01116 1-169 isoform P01116-2 G12D): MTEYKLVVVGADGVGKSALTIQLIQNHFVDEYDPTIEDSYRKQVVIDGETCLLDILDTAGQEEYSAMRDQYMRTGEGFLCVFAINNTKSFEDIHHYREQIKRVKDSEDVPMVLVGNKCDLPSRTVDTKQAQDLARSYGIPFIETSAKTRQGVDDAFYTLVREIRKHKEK

KRas^WT = molecular target: T5, KRas^WT (Homo sapiens, UniProt P01116); assay: as above
T5 construct: […]; biotin (biotinylated); purchased Accelegan Inc
T5 sequence (P01116 1-169 isoform P01116-2): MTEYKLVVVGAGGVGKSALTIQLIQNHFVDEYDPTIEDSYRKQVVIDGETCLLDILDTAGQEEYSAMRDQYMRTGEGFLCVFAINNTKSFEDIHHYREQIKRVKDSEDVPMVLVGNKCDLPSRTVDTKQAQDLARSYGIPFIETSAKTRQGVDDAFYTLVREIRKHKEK

KRas^G12R = molecular target: T6, KRas^G12R (Homo sapiens, UniProt P01116, G12R); assay: as above
T6 construct: […]; biotin (biotinylated); purchased Accelegan Inc
T6 sequence (P01116 1-169 isoform P01116-2 G12R): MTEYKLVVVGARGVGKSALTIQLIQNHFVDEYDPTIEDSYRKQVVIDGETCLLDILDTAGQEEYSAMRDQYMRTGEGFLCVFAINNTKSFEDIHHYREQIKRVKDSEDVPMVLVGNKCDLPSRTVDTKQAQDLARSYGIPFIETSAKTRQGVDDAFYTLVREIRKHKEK

T1 sequence (P01116 1-169 isoform P01116-2 G12S): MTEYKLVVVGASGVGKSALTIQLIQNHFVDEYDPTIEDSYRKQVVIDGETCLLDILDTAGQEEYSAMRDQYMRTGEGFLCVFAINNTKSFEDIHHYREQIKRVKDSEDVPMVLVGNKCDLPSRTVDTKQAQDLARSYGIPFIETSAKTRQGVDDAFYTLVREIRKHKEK

Compound	IC50 (KRas^G12S) [nM]	IC50 (KRas^G12V) [nM]	IC50 (KRas^Q61H) [nM]	IC50 (KRas^G12A) [nM]	IC50 (KRas^G12C) [nM]	IC50 (KRas^G13D) [nM]	IC50 (KRas^G12D) [nM]	IC50 (KRas^WT) [nM]	IC50 (KRas^G12R) [nM]
CCc1cccc2cccc(N3CCc4c(nc(OCC56CCCN5CCC6)nc4N4CC(CO)OC5(CCC5)C4)C3)c12 (stereo not drawn) [Example 129, (8-(7-(8-ethylnaphthalen-1-yl)-2-((tetrahydro-1H-pyrrolizin-7a(5H)-yl)methoxy)-5,6,7,8-tetrahydropyrido[3,4-d]pyrimidin-4-yl)-5-oxa-8-azaspiro[3.5]nonan-6-yl)methanol]	2140	2410	2430	2970	1300	3220	16000	2210	760
CCc1cccc2cccc(N3CCc4c(nc(OCC56CCCN5CCC6)nc4N4CCCC(N5CCCC5=O)C4)C3)c12 (stereo not drawn) [Example 137, 1-(1-(7-(8-ethylnaphthalen-1-yl)-2-((tetrahydro-1H-pyrrolizin-7a(5H)-yl)methoxy)-5,6,7,8-tetrahydropyrido[3,4-d]pyrimidin-4-yl)piperidin-3-yl)pyrrolidin-2-one]	1080	1470	1470	948	1030	1350	3240	1660	1140
CCc1cccc2cccc(N3CCc4c(nc(OCC56CCCN5CCC6)nc4N4CC5CNC(=O)C5C4)C3)c12 (stereo not drawn) [Example 52, 5-(7-(8-ethylnaphthalen-1-yl)-2-((hexahydro-1H-pyrrolizin-7a-yl)methoxy)-5,6,7,8-tetrahydropyrido[3,4-d]pyrimidin-4-yl)hexahydropyrrolo[3,4-c]pyrrol-1(2H)-one]	584	348	1420	1270	662	1150	1230	2220	723
CCc1cccc2cccc(N3CCc4c(nc(OCC56CCCN5CCC6)nc4N4CC(C)CC(C(N)=O)C4)C3)c12 (stereo not drawn) [Example 105, 1-(7-(8-ethylnaphthalen-1-yl)-2-((tetrahydro-1H-pyrrolizin-7a(5H)-yl)methoxy)-5,6,7,8-tetrahydropyrido[3,4-d]pyrimidin-4-yl)-5-methylpiperidine-3-carboxamide]	385	368	600	382	457	566	607	469	461
CCc1cccc2cccc(N3CCc4c(nc(OCC56CCCN5CCC6)nc4N4CCCC(C(C)O)C4)C3)c12 (stereo not drawn) [Example 131, 1-(1-(7-(8-ethylnaphthalen-1-yl)-2-((tetrahydro-1H-pyrrolizin-7a(5H)-yl)methoxy)-5,6,7,8-tetrahydropyrido[3,4-d]pyrimidin-4-yl)piperidin-3-yl)ethan-1-ol]	1350	1260	1480	1200	1070	1360	2120	1410	774
CCc1cccc2cccc(N3CCc4c(nc(OCC56CCCN5CCC6)nc4N4CCOCC(n5cccn5)C4)C3)c12 (stereo not drawn) [Example 9, 4-(7-(8-ethylnaphthalen-1-yl)-2-((tetrahydro-1H-pyrrolizin-7a(5H)-yl)methoxy)-5,6,7,8-tetrahydropyrido[3,4-d]pyrimidin-4-yl)-6-(1H-pyrazol-1-yl)-1,4-oxazepane]	154	165	76	128	115	66	192	54	168
CCc1cccc2cccc(N3CCc4c(nc(OCC56CCCN5CCC6)nc4N4CCCC(c5nnc(CO)n5C)C4)C3)c12 (stereo not drawn) [Example 166, (5-(1-(7-(8-ethylnaphthalen-1-yl)-2-((tetrahydro-1H-pyrrolizin-7a(5H)-yl)methoxy)-5,6,7,8-tetrahydropyrido[3,4-d]pyrimidin-4-yl)piperidin-3-yl)-4-methyl-4H-1,2,4-triazol-3-yl)methanol]	5130	7320	4580	5510	4150	4800	9850	4810	4650
CCc1cccc2cccc(N3CCc4c(nc(OCC56CCCN5CCC6)nc4N4CC(O)C(O)C(O)C4)C3)c12 (stereo not drawn) [Example 101, 1-(7-(8-ethylnaphthalen-1-yl)-2-((tetrahydro-1H-pyrrolizin-7a(5H)-yl)methoxy)-5,6,7,8-tetrahydropyrido[3,4-d]pyrimidin-4-yl)piperidine-3,4,5-triol]	383	546	740	487	355	673	1210	515	400

Continued by falling IC50 (KRas^G12S), values first:

IC50 (KRas^G12S) [nM]	IC50 (KRas^G12V) [nM]	IC50 (KRas^Q61H) [nM]	IC50 (KRas^G12A) [nM]	IC50 (KRas^G12C) [nM]	IC50 (KRas^G13D) [nM]	IC50 (KRas^G12D) [nM]	IC50 (KRas^WT) [nM]	IC50 (KRas^G12R) [nM]	Compound
4870	2550	5160	5030	1950	5980	5530	4730	1560	CCc1cccc2cccc(N3CCc4c(nc(OCC56CCCN5CCC6)nc4NC4CN(c5ccccn5)C4)C3)c12 [Example 150, 7-(8-ethylnaphthalen-1-yl)-N-(1-(pyridin-2-yl)azetidin-3-yl)-2-((tetrahydro-1H-pyrrolizin-7a(5H)-yl)methoxy)-5,6,7,8-tetrahydropyrido[3,4-d]pyrimidin-4-amine]
3430	8350	3980	5220	3790	3410	7510	4080	2790	CCc1cccc2cccc(N3CCc4c(nc(OCC56CCCN5CCC6)nc4N4CCCC(c5nc(C)no5)C4)C3)c12 (stereo not drawn) [Example 162, 5-(1-(7-(8-ethylnaphthalen-1-yl)-2-((tetrahydro-1H-pyrrolizin-7a(5H)-yl)methoxy)-5,6,7,8-tetrahydropyrido[3,4-d]pyrimidin-4-yl)piperidin-3-yl)-3-methyl-1,2,4-oxadiazole]
2900	1350	7800	3240	3070	7150	7620	7310	4350	CCc1cccc2cccc(N3CCc4c(nc(OCC56CCCN5CCC6)nc4NC[C@H]4CCC(=O)N4)C3)c12 [Example 148, (R)-5-(((7-(8-ethylnaphthalen-1-yl)-2-((tetrahydro-1H-pyrrolizin-7a(5H)-yl)methoxy)-5,6,7,8-tetrahydropyrido[3,4-d]pyrimidin-4-yl)amino)methyl)pyrrolidin-2-one]
1400	739	1750	2070	1150	1830	2040	1540	1360	CCc1cccc2cccc(N3CCc4c(nc(OCC56CCCN5CCC6)nc4N(C)Cc4c[nH]nn4)C3)c12 [Example 127, N-((1H-1,2,3-triazol-4-yl)methyl)-7-(8-ethylnaphthalen-1-yl)-N-methyl-2-((tetrahydro-1H-pyrrolizin-7a(5H)-yl)methoxy)-5,6,7,8-tetrahydropyrido[3,4-d]pyrimidin-4-amine]
797	564	778	644	811	735	1050	967	836	CCc1cccc2cccc(N3CCc4c(nc(OCC56CCCN5CCC6)nc4N4CCCCC(C)C4)C3)c12 (stereo not drawn) [Example 119]
665	1410	1050	1320	1200	720	1030	651	1490	CCc1cccc2cccc(N3CCc4c(nc(OCC56CCCN5CCC6)nc4N4CCCC(S(=O)(=O)NC)C4)C3)c12 (stereo not drawn) [Example 125, 1-(7-(8-ethylnaphthalen-1-yl)-2-((tetrahydro-1H-pyrrolizin-7a(5H)-yl)methoxy)-5,6,7,8-tetrahydropyrido[3,4-d]pyrimidin-4-yl)-N-methylpiperidine-3-sulfonamide]
101	81	291	169	81	375	67	171	74	CCc1cccc2cccc(N3CCc4c(nc(OCC56CCCN5CCC6)nc4N4CCCn5nc(N)cc5C4)C3)c12 [Example 10, 5-(7-(8-ethylnaphthalen-1-yl)-2-((tetrahydro-1H-pyrrolizin-7a(5H)-yl)methoxy)-5,6,7,8-tetrahydropyrido[3,4-d]pyrimidin-4-yl)-5,6,7,8-tetrahydro-4H-pyrazolo[1,5-a][1,4]diazepin-2-amine]
45	18	55	45	37	65	63	66	28	CCc1cccc2cccc(N3CCc4c(nc(OCC56CCCN5CCC6)nc4N4CCCC5(CC(=O)N5)C4)C3)c12 (stereo not drawn) [Example 16, 6-(7-(8-ethylnaphthalen-1-yl)-2-((hexahydro-1H-pyrrolizin-7a-yl)methoxy)-5,6,7,8-tetrahydropyrido[3,4-d]pyrimidin-4-yl)-1,6-diazaspiro[3.5]nonan-2-one]
